Data: US11808760B1, “System and methods for in vitro structural toxicity testing” (CURI BIO, INC., priority 2019, dated 2023)

Tests used:
liver cells [1] = test system: liver cells
liver cells [2] = assay: AI (CNN) structural toxicity assay, aspirin on liver cells (FIG. 6); type: cell-based
Description: In an exemplary embodiment of the subject technology, a series of 2-class neural network training steps may be used, where a separate model is created for each drug dose compared to its control. As will be appreciated, a high level of sensitivity in detecting structural changes will be generated. As a result, aspects of the subject technology successfully capture obvious phenotypes, such as cell damage and death, as well as subtle phenotypes, such as changes to sarcomere organization or distribution of mitochondria.
As detailed in the following sections, the input imaging data is processed and may be augmented before training deep neural networks. For each test condition, images from a well are dedicated for validation and the rest are used for training. The performance of each training may be used on the validation wells as the measure of structural change. […] One the other hand, if the achieved accuracy is high, it means that the trained neural network was able to differentiate between the drug-treated images at dose i versus the vehicle images, and the strength of the change is calculated from the distribution of class probabilities.
A 2-class deep neural network may be trained (530) for image classification. The higher layers of the neural network may be allowed to learn the image features. […]

iPSC-derived hepatocytes = assay: AI (CNN) structural toxicity assay, validation z-factor versus dose (FIG. 7); type: cell-based; conditions: reference vehicle (DMSO), doses 0.01-30 uM, 18-layer residual network
Description: When using multi-channel images, the channels may include brightfield images, and fluorescence images captured at different wavelengths in order to visualize different cellular structures. As one example of an experimental setup, the cells are iPSC-derived hepatocytes, the drug under investigation is tamoxifen (a drug with known liver toxicity), dose X is 0.01 uM, dose Y is 0.10 uM, dose Z is 1.00 uM, the cells are fixed and stained with phalloidin-conjugated fluorescent dyes, and the imaging is performed with an inverted fluorescence microscopy system, capturing multiple images at each individual well.
A 2-class deep neural network may be trained (530) for image classification. The higher layers of the neural network may be allowed to learn the image features. The training may be performed with an initial learning rate of 0.01 for 20 epochs and may be repeated three times. For each training session, the final neural network may be selected from the epoch with the highest validation accuracy.
To generate the input data to train the neural network, each image may be processed and augmented. […]

| Compound | structural damage of liver cells over time (liver cells [1]) | structural changes in the cells (liver cells [2]) | dose at which validation z-factors show values above -1 (start of structural changes between drug-treated cells and reference cells) (iPSC-derived hepatocytes) [µM] |
| --- | --- | --- | --- |
| CC(=O)N[C@@H](CS)C(=O)O [acetylcysteine] | little damage to the cells |  |  |
| CC(=O)Oc1ccccc1C(=O)O [aspirin] |  | no, or minimal, structural changes |  |
| COc1cccc2c1C(=O)c1c(O)c3c(c(O)c1C2=O)C[C@@](O)(C(=O)CO)C[C@@H]3O[C@H]1C[C@H](N)[C@H](O)[C@H](C)O1 [doxorubicin] | changes in the structural integrity of the cells |  |  |
| CC/C(=C(\c1ccccc1)c1ccc(OCCN(C)C)cc1)c1ccccc1 [tamoxifen] | noticeable structural damage |  | 5 |
